We go through nine compounds from patent publication US9510589B2, “Use and agrochemical composition of carboxylic acid dibutylamides” (priority 2011, dated 2016).

The subject of series [1] is enzymatically isolated cuticles of apple tree leaves. The series is described as follows: Penetration test, kresoxim-methyl (Example 9). The settings on record: without N,N-dibutylcarboxamide, 0.3 g/l kresoxim-methyl in acetone/water, 20° C., 60% relative air humidity.
Method: (§1) In this test, the penetration of active ingredients though enzymatically isolated cuticles of apple tree leaves was measured. Leaves which had been cut off in the fully developed state from apple trees of the Golden Delicious variety were used.
(§2) Thereafter, only the cuticles of the upper leaf sides which were free of stomata and hairs were used in the further procedure. They were repeatedly washed alternately with water and a buffer solution of pH 7. The clean cuticles obtained were finally applied to Teflon sheets and smoothed and dried with a gentle air stream.
(§3) In the next step, the cuticular membranes thus obtained were placed into stainless steel diffusion cells (=transport chambers) for membrane transport studies. For this purpose, the cuticles were positioned using tweezers centrally onto the edges of the diffusion cells which had been smeared with silicone grease and sealed with a ring which had likewise been greased. The arrangement was selected such that the morphological outer side of the cuticles was directed outward, i.e. toward the air, while the original inner side faced the interior of the diffusion cell. […]
(§4) To determine the penetration, 10 μl in each case of a spray liquor of the composition specified in the examples were applied to the outer side of a cuticle. […] The active ingredient penetration was measured by means of HPLC or radiolabeled active ingredient.
Series [2] has the same test system. The series is described as follows: Penetration test, bromoxynil, dimethyl vs dibutyl amides (Example 6). The settings on record: no N,N-dialkylcarboxamide, 0.5 g/l castor oil ethoxylate emulsifier only, 1.5 g/l bromoxynil in acetone/water, 20° C., 60% relative air humidity. It counts as in vitro ADME, apple trees of the Golden Delicious variety.
Method: as §1, §2, §3, §4
For series [3] the test system is unchanged. The series is described as follows: Penetration test, azoxystrobin (Example 10). It counts as in vitro ADME, apple trees of the Golden Delicious variety. The settings on record: without N,N-dibutylcarboxamide, 0.3 g/l azoxystrobin in acetone/water, 20° C., 60% relative air humidity.
Method: as §1, §2, §3, §4
For series [4] the test system is unchanged. The series is described as follows: Penetration test, epoxiconazole (Example 11). The format is in vitro ADME, apple trees of the Golden Delicious variety. The settings on record: without N,N-dibutylcarboxamide, 0.3 g/l epoxiconazole in acetone/water, 20° C., 60% relative air humidity.
Method: as §1, §2, §3, §4
Series [5] has the same test system. The series is described as follows: Penetration test, spirotetramat in acetone/water (Example 7). The settings on record: without N,N-dibutylcarboxamide, 0.3 g/l spirotetramat in acetone/water, 20° C., 60% relative air humidity. It counts as in vitro ADME, apple trees of the Golden Delicious variety.
Method: as §1, §2, §3, §4
Series [6] has the same test system. The series is described as follows: Penetration test, isopyrazam (Example 13). The format is in vitro ADME, apple trees of the Golden Delicious variety. The settings on record: without N,N-dibutylcarboxamide, 0.3 g/l isopyrazam in acetone/water, 20° C., 60% relative air humidity.
Method: as §1, §2, §3, §4
The test system is the same in series [7]. The series is described as follows: Penetration test, prothioconazole in acetone/water (Example 15). The format is in vitro ADME, apple trees of the Golden Delicious variety. The settings on record: without N,N-dibutylcarboxamide, 0.3 g/l prothioconazole in acetone/water, 25° C., 60% relative air humidity.
Method: as §1, §2, §3, §4
The test system is the same in series [8]. The series is described as follows: Penetration test, prothioconazole with dimethyl amide plus dibutyl amides (Example 17). The format is in vitro ADME, apple trees of the Golden Delicious variety. The settings on record: no N,N-dibutylcarboxamide, 0.8 g/l prothioconazole in acetone/water with 1.5 g/l N,N-dimethyl-C8-C10-carboxamide and 0.4 g/l tristyrylphenol ethoxylate, n = 21, 20° C., 60% relative air humidity.
Method: as §1, §2, §3, §4

Series [9] deals with isolated apple leaf cuticles. The series is described as follows: Penetration test, fluopyram EC (Example 21). The format is in vitro ADME, apple trees of the Golden Delicious variety. The settings on record: no carboxamide, 0.5 g/l fluopyram, 0.5 g/l emulsifier, 2% by weight solvent, 25° C., 60% relative air humidity. As to the method: The active ingredient fluopyram was made up as an EC formulation in the laboratory: fluopyram is dissolved in a preliminary mixture of solvent and emulsifier (dimethylacetamide+Tanemul PS16) and diluted with water to give the ready-to-use test solution. The test solution contains 0.5 g/l active ingredient, 0.5 g/l emulsifier and 2% by weight of solvent.

In series [10] the test system is enzymatically isolated cuticles of apple tree leaves. The series is described as follows: Penetration test, propiconazole (Example 12). The format is in vitro ADME, apple trees of the Golden Delicious variety. The settings on record: without N,N-dibutylcarboxamide, 0.3 g/l propiconazole in acetone/water, 20° C., 60% relative air humidity.
Method: as §1, §2, §3, §4

As to `CO/N=C(/C(=O)OC)c1ccccc1COc1ccccc1C` [kresoxim-methyl], the “Mean penetration of kresoxim-methyl in % 3 h” value in series [1] (3 h) was 1%. The “Mean penetration of kresoxim-methyl in % 24 h” value in series [1] (24 h) is 3%.
`N#Cc1cc(Br)c(O)c(Br)c1` [bromoxynil]: the “Mean penetration of bromoxynil in % 5 h” value in series [2] (5 h) amounted to 4%. Further, in [2] (24 h), the “Mean penetration of bromoxynil in % 24 h” value worked out at 20%.
For `CO/C=C(/C(=O)OC)c1ccccc1Oc1cc(Oc2ccccc2C#N)ncn1` [azoxystrobin], in series [3] (3 h), the “Mean penetration of azoxystrobin in % 3 h” value is recorded as less than 1%. In addition, the “Mean penetration of azoxystrobin in % 24 h” value in series [3] (24 h) is recorded as 1%.
Regarding `Fc1ccc([C@]2(Cn3cncn3)O[C@H]2c2ccccc2Cl)cc1` (racemic) [epoxiconazole], the “Mean penetration of epoxiconazole in % 3 h” value in series [4] (3 h) amounted to 1%. Also, in [4] (24 h), the “Mean penetration of epoxiconazole in % 24 h” value came to 2%.
Consider `CCOC(=O)OC1=C(c2cc(C)ccc2C)C(=O)N[C@]12CC[C@@H](OC)CC2` [spirotetramat], for which, in [5] (3 h), the “Mean penetration of spirotetramat in % 3 h” value stood at 0%. For the same compound, in [5] (24 h), the “Mean penetration of spirotetramat in % 24 h” value is on record as 1%.
As for `CC(C)C1C2CCC1c1c(NC(=O)c3cn(C)nc3C(F)F)cccc12` (centres unmarked) [isopyrazam], the “Mean penetration of isopyrazam in % 3 h” value in [6] (3 h) worked out at 1%. Further, the “Mean penetration of isopyrazam in % 24 h” value in [6] (24 h) is recorded as 2%.
In the case of `OC(Cc1ccccc1Cl)(Cn1nc[nH]c1=S)C1(Cl)CC1` (centres unmarked) [prothioconazole], the “Mean penetration of prothioconazole in % 3 h” value in [7] (3 h) was 1%; in series [8] (3 h) it was 1.3 (n = 21) %. Also, the “Mean penetration of prothioconazole in % 24 h” value in [7] (24 h) is 2%; in series [8] (24 h), 3.7 (n = 21) %.
Regarding `O=C(NCCc1ncc(C(F)(F)F)cc1Cl)c1ccccc1C(F)(F)F` [fluopyram], the “Mean penetration of fluopyram in % 6 h” value in [9] (6 h) is 20%. The “Mean penetration of fluopyram in % 24 h” value in [9] (24 h) is 53%.
As for `CCCC1COC(Cn2cncn2)(c2ccc(Cl)cc2Cl)O1` (centres unmarked) [propiconazole], the “Mean penetration of propiconazole in % 3 h” value in [10] (3 h) is listed as 4%. The “Mean penetration of propiconazole in % 24 h” value in series [10] (24 h) is on record as 44%.
